Measured values as given in EP0714912B1, “GMP-140 ligand” (THE BOARD OF REGENTS OF THE UNIVERSITY OF OKLAHOMA, priority 1990, dated 1992).

How the values were obtained:
immobilized GMP-140 [1] = molecular target: T1, immobilized GMP-140 (Homo sapiens, UniProt P16109); assay: Neutrophil adhesion to purified GMP-140 immobilized on plastic wells (myeloperoxidase read-out); assay type: cell-based; details: concentrations up to 300 µM
T1 construct: from tissue; host or cells: outdated human platelet packs
T1 sequence (P16109 42-830): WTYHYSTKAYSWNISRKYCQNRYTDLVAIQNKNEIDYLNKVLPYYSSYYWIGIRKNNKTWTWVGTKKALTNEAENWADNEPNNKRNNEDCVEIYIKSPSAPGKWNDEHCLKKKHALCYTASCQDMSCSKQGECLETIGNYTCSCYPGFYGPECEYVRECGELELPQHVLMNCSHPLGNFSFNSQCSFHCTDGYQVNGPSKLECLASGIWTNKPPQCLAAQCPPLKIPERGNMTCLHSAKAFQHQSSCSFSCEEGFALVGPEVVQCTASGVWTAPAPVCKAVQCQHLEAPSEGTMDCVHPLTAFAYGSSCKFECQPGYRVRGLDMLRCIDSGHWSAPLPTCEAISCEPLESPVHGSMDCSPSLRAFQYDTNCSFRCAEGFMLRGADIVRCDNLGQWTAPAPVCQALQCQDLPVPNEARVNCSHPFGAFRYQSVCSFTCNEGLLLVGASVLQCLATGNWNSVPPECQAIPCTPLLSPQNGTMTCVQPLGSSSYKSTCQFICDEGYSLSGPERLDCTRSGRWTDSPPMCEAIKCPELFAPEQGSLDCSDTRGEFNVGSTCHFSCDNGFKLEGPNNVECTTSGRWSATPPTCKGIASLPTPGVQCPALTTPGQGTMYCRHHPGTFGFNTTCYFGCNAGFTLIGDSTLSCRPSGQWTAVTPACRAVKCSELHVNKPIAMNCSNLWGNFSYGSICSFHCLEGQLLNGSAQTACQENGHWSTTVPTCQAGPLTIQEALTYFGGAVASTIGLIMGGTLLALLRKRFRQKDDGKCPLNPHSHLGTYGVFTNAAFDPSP
Excerpt: (§1) Peptides were screened for their ability to inhibit neutrophil adhesion to purified GMP-140 immobilized on plastic wells, using the assay described by Geng, et al., Nature 343, 757-760 (1990).
(§2) Human neutrophils are isolated from heparinized whole blood by density gradient centrifugation on Mono-Poly resolving media, Flow Laboratories. Neutrophil suspensions are greater than 98% pure and greater than 95% viable by trypan blue exclusion. For adhesion assays, neutrophils are suspended at a concentration of 2 x 10^6 cells/ml in Hanks' balanced salt solution containing 1.26 mM Ca^2+ and 0.81 mM Mg^2+ (HBSS, Gibco) with 5 mg/ml human serum albumin (HBSS/HSA). Adhesion assays are conducted in triplicate in 96-well microtiter plates, Corning, incubated at 4°C overnight with 50 microliters of various protein solutions.
GMP-140 is plated at 5 micrograms/ml and the control proteins: human serum albumin (Alb), platelet glycoprotein IIb/IIIa (IIb), von Willebrand factor (vWF), fibrinogen (FIB), thrombomodulin (TM), gelatin (GEL) or human serum (HS), are added at 50 micrograms/ml. All wells are blocked for 2 h at 22°C with 300 microliters HBSS containing 10 mg/ml HSA, then washed three times with HBSS containing 0.1% Tween-20 and once with HBSS. […] Inhibition is read as a lower percent adhesion, so that a value of 5% means that 95% of the specific adhesion was inhibited. […]

immobilized GMP-140 [2] = assay: as above; assay type: cell-based, human; details: peptide screen, result in words
Excerpt: as §1, §2
GMP-140 is plated at 5 micrograms/ml and the control proteins: human serum albumin (Alb), platelet glycoprotein IIb/IIIa (IIb), von Willebrand factor (vWF), fibrinogen (FIB), thrombomodulin (TM), gelatin (GEL) or human serum (HS), are added at 50 micrograms/ml. All wells are blocked for 2 h at 22°C with 300 microliters HBSS containing 10 mg/ml HSA, then washed three times with HBSS containing 0.1% Tween-20 and once with HBSS. Cells (2 x 10^5 per well were added to the wells and incubated at 22°C for 20 min. The wells were then filled with HBSS/HSA, sealed with acetate tape (Dynatech), and centrifuged inverted at 150 g for 5 min. After discarding nonadherent cells and supernates, the contents of each well are solubilized with 200 microliters 0.5% hexadecyltrimethylammonium bromide, Sigma, in 50 mM potassium phosphate, pH 6.0, and assayed for myeloperoxidase activity, Ley, et al., Blood 73, 1324-1330 (1989). The number of cells bound was derived from a standard curve of myeloperoxidase activity versus numbers of cells. Under all assay conditions, the cells released less than 5% of total myeloperoxidase and lactate dehydrogenase. Results are presented in Table I. 100% adhesion is that seen in the presence of the C-terminal peptide (amino acid residues 761-777 of GMP-140) as a negative control; this value is the same as controls in which neither peptide nor antibody is added to the cells. Inhibition is read as a lower percent adhesion, so that a value of 5% means that 95% of the specific adhesion was inhibited.
Peptides from the lectin-like domain of GMP-140 were assayed for their ability to inhibit adhesion of neutrophils to immobilized GMP-140 in the assay described in example 1. Concentrations tested ranged from 0.1 mM to 1.5 mM.

immobilized GMP-140 [3] = assay: ELISA (avidin detection) of binding of biotinylated monoclonal antibodies G1, G2, G3 to immobilized GMP-140 in presence of soluble peptide; set-up: species or system human
Method: Based on competitive ELISAs with the purified protein, G1, G2, and G3 each recognize distinct or only partially overlapping epitopes. 1.5 mM peptide was added to biotinylated mAb at a concentration of 2.5 micrograms/ml, which were then added to the wells containing GMP-140, as described in example 1. Binding was measured by an ELISA with an avidin detection system.
The monoclonal antibodies were biotinylated as follows: to 0.5 ml of purified IgG antibody (1 mg/ml in PBS, pH 7.4) was added 50 µl of 3.2 mM N-hydroxysuccinimide biotin in dimethyl sulfoxide and 50 µl of 1 M NaHCO3. After a 2 hour incubation at room temperature in the dark, the reaction was stopped with 50 µl of 1 M NH4Cl. The biotinylated antibody was then separated from other components by gel filtration on a PD-10 column equilibrated in PBS. The ELISA was performed as follows; all steps were performed at room temperature.
Biotinylated antibody (2.5 µg/ml) with or without 1.5 mM peptide was incubated with wells coated with GMP-140 as described in example 1. After a 2 hour incubation, the antibody was removed, the wells were washed, and 0.1 ml of horseradish peroxidase-conjugated stepavidin (Pierce), diluted 1:1,000 in HBSS/HSA, was added for 30 min. The wells were then washed and 0.1 ml of peroxidase substrate (Pierce) was added for 15 min. The color reaction was read at 405 nm.

neutrophils = assay: Adhesion of neutrophils to microtiter wells coated with lectin peptide 19-34-KLH conjugate or GMP-140; assay type: cell-based, human; details: peptide 1.5 mM; Figure 3
Method: GMP-140 is plated at 5 micrograms/ml and the control proteins: human serum albumin (Alb), platelet glycoprotein IIb/IIIa (IIb), von Willebrand factor (vWF), fibrinogen (FIB), thrombomodulin (TM), gelatin (GEL) or human serum (HS), are added at 50 micrograms/ml. All wells are blocked for 2 h at 22°C with 300 microliters HBSS containing 10 mg/ml HSA, then washed three times with HBSS containing 0.1% Tween-20 and once with HBSS. […] Inhibition is read as a lower percent adhesion, so that a value of 5% means that 95% of the specific adhesion was inhibited.
Lectin peptide 19-34 was conjugated to the carrier protein keyhole limpet hemocyanin by its N-terminal cysteine by standard procedures such as the commercial Imject kit from Pierce Chemicals. This peptide-KLH conjugate was then tested in the assay described in example 1 and the numbers of cells bound determined. […]

Compound	effect on binding of neutrophils to purified, immobilized GMP-140 (immobilized GMP-140 [1])	inhibition of neutrophil adhesion to immobilized GMP-140 by peptides (immobilized GMP-140 [2])	% Binding of Biotinylated MAbs G1 (immobilized GMP-140 [3]; peptide 1.5 mM added to biotinylated mAb G1 (2.5 micrograms/ml) before addition to immobilized GMP-140)	% Binding of Biotinylated MAbs G2 (immobilized GMP-140 [3]; peptide 1.5 mM added to biotinylated mAb G2 (2.5 micrograms/ml) before addition to immobilized GMP-140)	% Binding of Biotinylated MAbs G3 (immobilized GMP-140 [3]; peptide 1.5 mM added to biotinylated mAb G3 (2.5 micrograms/ml) before addition to immobilized GMP-140)	competition by fluid-phase competitor for neutrophil adhesion to immobilized lectin peptide 19-34-KLH conjugate (neutrophils)
CC(=O)N[C@H]1[C@H](O[C@H]2[C@@H](O)[C@@H](CO)O[C@@H](O[C@H]3[C@H](O)[C@@H](O)C(O)O[C@@H]3CO)[C@@H]2O)O[C@H](CO)[C@@H](O[C@@H]2O[C@H](CO)[C@H](O)[C@H](O)[C@H]2O)[C@@H]1O[C@@H]1O[C@@H](C)[C@@H](O)[C@@H](O)[C@@H]1O (stereo partly drawn) [LNFIII]	absolutely no effect	–	–	–	–	–
LECTIN 19-34: synthetic peptide, amino acids 19-34 of the lectin domain of GMP-140 (CQNRYTDLVAIQNKNE; UniProt P16109 60-75, looked up, fragment)	–	inhibited adhesion	23%	26%	24%	compete for adhesion
